# Values quoted from earlier work in PubChem BioAssay AID493017 (Abbott Labs, 2003).
# Target: Platelet-derived growth factor receptor alpha (Homo sapiens) (UniProt P16234)
# Assay: PubChem AID 493017
# Settings: WOMBAT literature affinities, multiple human targets; PDGFR; gene PDGFRA; NCBI gene 5156
# Chain of Platelet-derived growth factor receptor alpha (Homo sapiens) (P16234 whole entry, looked up): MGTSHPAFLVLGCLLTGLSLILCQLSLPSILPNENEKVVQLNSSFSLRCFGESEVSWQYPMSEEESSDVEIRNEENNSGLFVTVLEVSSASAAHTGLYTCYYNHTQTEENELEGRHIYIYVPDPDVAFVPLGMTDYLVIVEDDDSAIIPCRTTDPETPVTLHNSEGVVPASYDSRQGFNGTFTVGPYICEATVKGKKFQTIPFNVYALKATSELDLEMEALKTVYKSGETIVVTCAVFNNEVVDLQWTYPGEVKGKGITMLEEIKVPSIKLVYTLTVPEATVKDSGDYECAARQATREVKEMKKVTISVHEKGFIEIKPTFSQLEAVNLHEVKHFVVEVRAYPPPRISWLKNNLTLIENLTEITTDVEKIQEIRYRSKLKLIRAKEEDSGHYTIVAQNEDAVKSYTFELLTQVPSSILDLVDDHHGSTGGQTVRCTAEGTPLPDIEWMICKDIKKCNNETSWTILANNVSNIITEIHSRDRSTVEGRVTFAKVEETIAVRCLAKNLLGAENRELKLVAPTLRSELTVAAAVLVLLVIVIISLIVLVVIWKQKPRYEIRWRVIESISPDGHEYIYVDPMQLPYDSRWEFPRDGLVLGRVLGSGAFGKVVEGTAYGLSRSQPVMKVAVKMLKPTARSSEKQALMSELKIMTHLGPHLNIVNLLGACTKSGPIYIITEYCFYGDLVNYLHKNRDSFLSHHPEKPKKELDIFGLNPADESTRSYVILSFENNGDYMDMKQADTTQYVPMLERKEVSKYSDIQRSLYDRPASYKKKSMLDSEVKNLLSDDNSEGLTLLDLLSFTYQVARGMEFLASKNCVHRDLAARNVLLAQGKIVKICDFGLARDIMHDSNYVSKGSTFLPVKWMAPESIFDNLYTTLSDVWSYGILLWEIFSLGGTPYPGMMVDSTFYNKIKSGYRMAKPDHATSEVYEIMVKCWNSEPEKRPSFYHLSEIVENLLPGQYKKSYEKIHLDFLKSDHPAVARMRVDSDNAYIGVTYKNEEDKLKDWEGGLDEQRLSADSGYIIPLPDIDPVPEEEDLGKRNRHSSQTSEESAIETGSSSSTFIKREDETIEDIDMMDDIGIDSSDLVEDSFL
row,SMILES,IC50
1,COc1cc2nccc(Oc3ccc(C(=O)c4ccccc4C(F)(F)F)cc3)c2cc1OC,7200 nM
2,COc1cc2nccc(Oc3cccc(OC)c3OC)c2cc1OC,4400 nM
3,COc1cc2nccc(Oc3ccccc3)c2cc1OC,760 nM
4,CCCCc1ccc(C(=O)c2ccc(Oc3ccnc4cc(OC)c(OC)cc34)cc2)cc1,150 nM
5,COc1cc2nccc(Oc3ccccc3C(=O)c3ccccc3)c2cc1OC,48000 nM
6,COc1cccc(Oc2ccnc3cc(OC)c(OC)cc23)c1,440 nM
7,COc1cc2nccc(Oc3cccc(C)c3)c2cc1OC,6900 nM

# Results, then the molecule that gave them:
row,IC50,SMILES
1,1700 nM,COc1cc2nccc(Oc3ccc(C(=O)c4ccc(C)cc4)cc3)c2cc1OC
2,3600 nM,COc1cc2nccc(Oc3ccc(NC(=O)c4ccc(C(C)=O)cc4)cc3)c2cc1OC
3,50 nM,COc1cc2nccc(Oc3ccc(NC(=O)c4ccc(C(C)(C)C)cc4)cc3)c2cc1OC
4,15000 nM,COc1cc2nccc(Oc3ccc(C(C)=O)cc3)c2cc1OC
5,330 nM,COc1cc2nccc(Oc3ccc(N(C)C(=O)c4ccc(C(C)(C)C)cc4)cc3)c2cc1OC
